Assay results taken from US10435371B2, “Multifunctional aminoquinoline therapeutic agent” (LOHOCLA RESEARCH CORPORATION, priority 2014, dated 2019).

Columns and labels:
[1] = molecular target: CaV1.2 (Voltage sensitive Ca** channel (L-type)) (Homo sapiens, UniProt Q13936); test: PDSP radioligand binding; conditions: Table 3, the 6th table r22c0; read-out: Ki, CaV1.2 (lack of affinity)
[2] = molecular target: β2 (Adrenergic Rs (beta adrenergic)) (Homo sapiens, UniProt P07550); test: PDSP radioligand binding
[3] = molecular target: T1, GABA-A receptors (α1, β2, γ2s subunits) (UniProt P18508+P47870+P62813); test: Two-electrode voltage clamp, GABA-A receptors expressed in Xenopus oocytes; format: cell-based, rat α1 and γ2s, human β2; conditions: FIG. 4A
T1 construct: expressed in transfected cells; host or cells: Xenopus laevis oocytes injected with capped cRNAs (α1:β2:γ2s 2:2:20 ng)
Protocol: Xenopus laevis frogs were obtained from Nasco (Fort Atkinson, Wis., USA). The complementary DNAs encoding the GABAA subunits rat α1 and γ2s and human β2 were provided by Dr. M. H. Akabas and Dr. Paul Whiting, respectively. The in vitro transcription of α1, β2, and γ2s subunits was performed using mMessage mMachine® (Life Technologies, Grand Island, N.Y.). After isolation of Xenopus laevis oocytes, they were injected with capped complementary RNAs encoding α1, β2, and γ2s subunits in a ratio 2:2:20 ng. The injected oocytes were incubated at 15° C. in sterilized Barth's solution [MBS; composition: 88 mM NaCl, 1 mM KCl, 10 mM HEPES, 0.82 mM MgSO4, 2.4 mM NaHCO3, 0.91 mM CaCl2), and 0.33 mM Ca(NO3)2, pH 7.5] for 3-5 days before recording. All surgery was performed according to an approved institutional protocol. The responses of GABAARs expressed in oocytes were studied through two-electrode voltage clamp (Oocyte Clamp OC-725C, Warner Instruments, Hamden, Conn.), recording through a POWERLAB 4/30 system (ADInstruments, Colorado Springs, Colo.). The oocyte was placed in a chamber perfused with MBS, and voltage-clamped at −70 mV.

[4] = system: rats treated with Complete Freund's Adjuvant; test: Naltrindole reversal of the effect of DCUKA on CFA-induced neuropathic pain; format: in vivo, rat; conditions: DCUKA 50 mg/kg oral plus intraplantar saline, 2 days after CFA; FIG. 12
Protocol: Rats were tested for baseline mechanical pain threshold (von Frey test) and given an intraplantar injection of Complete Freunds Adjuvant (CFA) in the left hind paw.

[5] = molecular target: MOR (μ opiate receptor) (Homo sapiens, UniProt P35372); test: PDSP radioligand binding, [^3H]DAMGO
[6] = molecular target: V1A (Vasopressin) (Homo sapiens, UniProt P37288); test: PDSP radioligand binding
[7] = molecular target: D2 (Dopamine Rs) (Homo sapiens, UniProt P14416); test: PDSP radioligand binding
[8] = system: rats treated with Complete Freund's Adjuvant; test: Reversal of CFA-induced neuropathic pain (von Frey mechanical pain threshold); format: in vivo, rat; conditions: for Mechanical pain threshold, ratio to baseline: 1 hour
[9] = system: ethanol dependent rats; test: Operant responding for alcohol in ethanol vapor-exposed dependent rats; format: in vivo, rat; conditions: ethanol vapor-exposed rats; FIG. 18
Source text: This example illustrates that ethanol dependent rats are motivated to work for ethanol reward during a period of forced abstinence and that DCUK-OEt reduces responding for the alcohol reward.
The methods used in this study are extensively described in (Vendruscolo et al., 2012). The rats were first trained to self-administer ethanol in an operant chamber. The rats were given free-choice access to alcohol (10% w/v) and water for 1 day in their home cages to habituate them to the taste of alcohol. The rats were then subjected to an overnight session in the operant chambers with access to one lever that delivered water (FR1). Food was available ad libitum during this training. After 1 day off, the rats were subjected to a 2 hour session (FR1) for 1 day and a 1 hour session (FR1) the next day, with one lever delivering alcohol. All of the subsequent sessions lasted 30 minutes, and two levers were available (left lever: water; right lever: alcohol). Once trained, the rats were made dependent by chronic, intermittent exposure to alcohol vapors (Gilpin et al., 2008). They underwent cycles of 14 hours of ethanol exposure (blood alcohol levels during vapor exposure ranged between 150 and 250 mg %) and 10 hours in the absence of ethanol vapor, during which behavioral testing for acute withdrawal occurred (i.e., 6-8 hours after vapor was turned off, when brain and blood alcohol levels were negligible). Nondependent rats were those not exposed to alcohol vapor. Pharmacological testing occurred after at least 2 months of vapor exposure, when full dependence was observed. DCUKA-OEt was administered i.p. at the doses specified in FIG. 18, sixty minutes prior to placing the animal in the operant chamber. The vehicle for DCUK-OEt was injected in certain animals as a control.

T1 sequence (P62813 28-455): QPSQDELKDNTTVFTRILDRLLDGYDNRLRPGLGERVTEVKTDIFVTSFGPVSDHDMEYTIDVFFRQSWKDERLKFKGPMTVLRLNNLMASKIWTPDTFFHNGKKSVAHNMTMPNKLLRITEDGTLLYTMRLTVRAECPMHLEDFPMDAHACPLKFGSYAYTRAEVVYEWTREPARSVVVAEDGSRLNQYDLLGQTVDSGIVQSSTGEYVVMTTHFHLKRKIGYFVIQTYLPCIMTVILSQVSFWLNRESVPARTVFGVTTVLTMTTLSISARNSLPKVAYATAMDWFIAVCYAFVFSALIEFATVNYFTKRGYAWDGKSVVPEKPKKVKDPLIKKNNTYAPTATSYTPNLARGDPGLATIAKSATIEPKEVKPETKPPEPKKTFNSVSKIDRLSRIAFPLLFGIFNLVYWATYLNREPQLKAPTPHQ
T1 sequence (P47870 26-474 isoform P47870-1 limits assumed): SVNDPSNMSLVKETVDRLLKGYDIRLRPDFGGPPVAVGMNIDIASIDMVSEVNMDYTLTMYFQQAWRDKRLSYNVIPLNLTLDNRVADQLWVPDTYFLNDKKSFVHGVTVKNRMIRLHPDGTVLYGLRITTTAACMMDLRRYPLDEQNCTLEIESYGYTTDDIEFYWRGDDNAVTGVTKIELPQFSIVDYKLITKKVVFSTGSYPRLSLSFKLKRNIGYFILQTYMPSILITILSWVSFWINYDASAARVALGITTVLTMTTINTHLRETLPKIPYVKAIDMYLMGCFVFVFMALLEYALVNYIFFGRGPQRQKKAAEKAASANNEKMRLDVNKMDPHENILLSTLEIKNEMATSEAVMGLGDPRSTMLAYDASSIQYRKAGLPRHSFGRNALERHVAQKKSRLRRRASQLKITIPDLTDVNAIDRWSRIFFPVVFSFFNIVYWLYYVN
T1 sequence (P18508 39-466): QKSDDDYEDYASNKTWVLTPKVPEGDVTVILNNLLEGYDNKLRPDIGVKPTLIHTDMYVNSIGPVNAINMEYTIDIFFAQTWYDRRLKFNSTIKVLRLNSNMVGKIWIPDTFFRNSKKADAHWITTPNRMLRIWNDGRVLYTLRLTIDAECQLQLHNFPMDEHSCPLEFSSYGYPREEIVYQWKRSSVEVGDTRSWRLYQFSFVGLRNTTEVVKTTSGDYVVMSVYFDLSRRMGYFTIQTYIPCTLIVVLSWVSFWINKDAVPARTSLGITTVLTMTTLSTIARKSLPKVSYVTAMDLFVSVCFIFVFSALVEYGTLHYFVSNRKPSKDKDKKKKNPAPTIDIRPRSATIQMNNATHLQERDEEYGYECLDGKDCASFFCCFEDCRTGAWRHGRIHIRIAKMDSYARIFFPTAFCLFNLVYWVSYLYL
CaV1.2 (Voltage sensitive Ca** channel (L-type)), sequence (Q13936 whole entry): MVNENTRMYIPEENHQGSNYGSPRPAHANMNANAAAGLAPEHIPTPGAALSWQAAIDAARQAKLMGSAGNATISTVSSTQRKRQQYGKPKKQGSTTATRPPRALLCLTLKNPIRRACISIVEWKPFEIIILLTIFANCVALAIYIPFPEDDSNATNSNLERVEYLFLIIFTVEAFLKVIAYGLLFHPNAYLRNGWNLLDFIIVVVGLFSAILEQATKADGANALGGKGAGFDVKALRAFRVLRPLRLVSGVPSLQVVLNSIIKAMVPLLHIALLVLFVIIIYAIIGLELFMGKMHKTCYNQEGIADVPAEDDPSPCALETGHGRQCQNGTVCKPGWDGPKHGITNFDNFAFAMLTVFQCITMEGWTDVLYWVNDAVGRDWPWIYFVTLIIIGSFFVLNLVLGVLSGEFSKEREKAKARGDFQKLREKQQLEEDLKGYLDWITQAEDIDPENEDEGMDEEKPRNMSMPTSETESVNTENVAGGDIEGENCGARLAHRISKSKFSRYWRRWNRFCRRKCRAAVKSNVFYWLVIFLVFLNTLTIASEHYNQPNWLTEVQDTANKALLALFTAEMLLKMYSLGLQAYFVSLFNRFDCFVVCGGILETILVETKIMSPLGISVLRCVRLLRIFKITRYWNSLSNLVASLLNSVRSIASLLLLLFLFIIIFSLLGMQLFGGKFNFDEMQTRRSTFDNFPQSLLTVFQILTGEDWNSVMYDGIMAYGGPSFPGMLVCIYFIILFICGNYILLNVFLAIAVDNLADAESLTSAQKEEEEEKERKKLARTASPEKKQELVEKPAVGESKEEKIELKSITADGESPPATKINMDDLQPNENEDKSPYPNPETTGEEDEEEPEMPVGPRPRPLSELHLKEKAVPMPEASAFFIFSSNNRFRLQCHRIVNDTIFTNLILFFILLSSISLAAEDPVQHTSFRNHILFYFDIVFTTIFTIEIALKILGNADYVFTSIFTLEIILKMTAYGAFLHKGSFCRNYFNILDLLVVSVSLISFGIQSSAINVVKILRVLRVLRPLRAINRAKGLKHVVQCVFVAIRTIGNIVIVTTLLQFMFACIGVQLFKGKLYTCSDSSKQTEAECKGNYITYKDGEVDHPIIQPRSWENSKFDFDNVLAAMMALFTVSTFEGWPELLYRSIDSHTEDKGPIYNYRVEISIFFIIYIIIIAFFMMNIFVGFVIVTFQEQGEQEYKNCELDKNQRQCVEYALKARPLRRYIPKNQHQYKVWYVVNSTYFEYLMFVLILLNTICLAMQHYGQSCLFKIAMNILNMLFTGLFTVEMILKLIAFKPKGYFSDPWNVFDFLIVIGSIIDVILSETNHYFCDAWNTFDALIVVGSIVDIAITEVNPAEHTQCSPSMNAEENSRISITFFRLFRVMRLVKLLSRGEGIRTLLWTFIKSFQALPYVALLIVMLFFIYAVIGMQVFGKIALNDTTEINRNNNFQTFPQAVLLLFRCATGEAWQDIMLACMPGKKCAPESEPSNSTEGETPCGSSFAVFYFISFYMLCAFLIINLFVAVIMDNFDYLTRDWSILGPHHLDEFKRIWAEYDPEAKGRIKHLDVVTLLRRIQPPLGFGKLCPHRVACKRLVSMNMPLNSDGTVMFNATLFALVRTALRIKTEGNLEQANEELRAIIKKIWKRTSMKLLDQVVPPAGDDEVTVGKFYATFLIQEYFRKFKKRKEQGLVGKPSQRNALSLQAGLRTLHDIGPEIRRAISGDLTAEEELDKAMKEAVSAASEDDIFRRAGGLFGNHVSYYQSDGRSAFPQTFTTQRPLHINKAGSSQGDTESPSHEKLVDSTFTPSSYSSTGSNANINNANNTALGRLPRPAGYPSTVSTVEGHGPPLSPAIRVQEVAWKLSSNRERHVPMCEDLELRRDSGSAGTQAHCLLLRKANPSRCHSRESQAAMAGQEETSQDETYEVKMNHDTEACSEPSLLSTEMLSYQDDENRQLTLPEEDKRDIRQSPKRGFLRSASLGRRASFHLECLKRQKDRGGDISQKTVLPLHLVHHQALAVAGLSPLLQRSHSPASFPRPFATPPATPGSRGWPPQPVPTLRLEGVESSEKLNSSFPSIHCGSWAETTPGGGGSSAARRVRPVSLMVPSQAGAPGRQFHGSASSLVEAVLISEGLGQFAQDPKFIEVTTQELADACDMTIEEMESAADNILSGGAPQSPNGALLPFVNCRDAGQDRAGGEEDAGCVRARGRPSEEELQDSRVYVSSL
V1A (Vasopressin), sequence (P37288 whole entry): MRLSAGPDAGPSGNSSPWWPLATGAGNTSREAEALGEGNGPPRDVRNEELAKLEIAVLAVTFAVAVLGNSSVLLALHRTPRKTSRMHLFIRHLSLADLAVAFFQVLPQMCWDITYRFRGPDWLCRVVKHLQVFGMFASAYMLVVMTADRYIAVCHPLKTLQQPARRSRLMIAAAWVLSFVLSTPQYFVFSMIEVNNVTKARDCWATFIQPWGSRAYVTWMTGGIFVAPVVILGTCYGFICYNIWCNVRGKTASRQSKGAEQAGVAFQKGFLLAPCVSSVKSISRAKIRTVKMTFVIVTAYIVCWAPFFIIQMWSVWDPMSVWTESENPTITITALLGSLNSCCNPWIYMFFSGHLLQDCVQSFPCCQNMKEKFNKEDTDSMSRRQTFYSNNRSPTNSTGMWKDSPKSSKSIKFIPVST
β2 (Adrenergic Rs (beta adrenergic)), sequence (P07550 whole entry): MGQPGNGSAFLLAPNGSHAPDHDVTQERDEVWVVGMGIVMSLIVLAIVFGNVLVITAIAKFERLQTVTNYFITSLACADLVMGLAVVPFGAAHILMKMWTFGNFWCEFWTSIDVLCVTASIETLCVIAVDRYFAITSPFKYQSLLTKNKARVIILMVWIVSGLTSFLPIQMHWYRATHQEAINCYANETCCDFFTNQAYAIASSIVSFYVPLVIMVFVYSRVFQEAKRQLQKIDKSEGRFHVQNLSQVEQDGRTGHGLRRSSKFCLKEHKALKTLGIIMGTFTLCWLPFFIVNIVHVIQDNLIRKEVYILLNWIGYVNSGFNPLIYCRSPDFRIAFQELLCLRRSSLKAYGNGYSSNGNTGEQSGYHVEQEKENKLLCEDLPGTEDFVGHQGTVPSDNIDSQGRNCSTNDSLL
D2 (Dopamine Rs), sequence (P14416 whole entry): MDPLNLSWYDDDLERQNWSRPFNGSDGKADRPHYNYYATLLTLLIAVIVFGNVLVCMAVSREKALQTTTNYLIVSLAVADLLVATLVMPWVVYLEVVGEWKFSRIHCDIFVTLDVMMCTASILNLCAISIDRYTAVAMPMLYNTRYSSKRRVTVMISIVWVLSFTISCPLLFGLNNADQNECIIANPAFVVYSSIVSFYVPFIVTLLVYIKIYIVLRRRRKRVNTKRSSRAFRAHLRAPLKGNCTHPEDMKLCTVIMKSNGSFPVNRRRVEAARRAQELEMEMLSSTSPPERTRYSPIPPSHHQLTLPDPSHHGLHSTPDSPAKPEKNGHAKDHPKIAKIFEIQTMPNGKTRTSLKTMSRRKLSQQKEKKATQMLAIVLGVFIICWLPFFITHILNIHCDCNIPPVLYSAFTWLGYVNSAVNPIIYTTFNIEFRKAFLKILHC

O=C(O)c1cc(NC(=O)N(c2ccccc2)c2ccccc2)c2c(Cl)cc(Cl)cc2n1 [DCUKA, 5,7-dichloro-4-(3,3-diphenylureido)quinoline-2-carboxylic acid] was tested, and the Ki [1] was > 10 µM, the Ki [2] was > 10 µM and the “Character of action at the GABA-A receptor” value [3] was “positive allosteric modulators (PAM)”. For the same compound, the GABA-induced chloride currents ([3]; co-applied with EC10 GABA) was “significantly enhanced GABA-induced currents”, the “Chloride currents, compound alone” value ([3]; without GABA) was “no effect on chloride currents by themselves” and the Mechanical pain threshold [4] was “increased the pain threshold back to baseline level”. The Ki [5] was > 10 µM, the Ki [6] was > 10 µM and the Ki [7] was > 10 µM. The “Mechanical pain threshold, ratio to baseline” value ([8]; 48-60 h after CFA, 50 mg/kg oral, three experiments combined, FIG. 7) was “a level not significantly different from the baseline level”, the “Mechanical pain threshold, ratio to baseline” value ([8]; 48 h after CFA, 50 mg/kg, DCUKA n=17, BCUKA n=6, FIG. 8) was “reversed the mechanical pain threshold to a level not significantly different from baseline” and the “Doses that significantly reversed the CFA-induced decrease of mechanical pain threshold” value ([8]; oral, 60 min, meta-analysis of five experiments, FIG. 9) was ≥ 30 mg/kg. The “Alcohol self-administration compared to baseline” value [9] was “no significant effect on repressing alcohol self-administration”.
